Measurements: patent US20230092294A1, “COMPOSITIONS AND METHODS FOR POTENTIATING IMMUNE RESPONSE” (Kumquat Biosciences Inc., priority 2019, published 2023)

Assays:
[1] = system: HER2-positive OVCAR-3 ovarian cancer cells; test: Additional CAR-T killing assay (Example 11); type: cell-based, human; details: HER2 scFv-CD28-CD3z-CAR-T cells from Donor 1 or Donor 2, compound-treated 1h at 1, 3 or 10 μM; co-culture 2 h; vs DMSO; FIG. 5
From the text: HER2 scFv-CD28-CD3z-CAR-T (Creative Bio) lentiviral particles were generated via transfection of 293T cells using Lipofectamine 2000 transfection reagent (ThermoFisher) according to manufacturer's instructions Human CD3+ T cells were negatively selected from peripheral blood mononuclear cells (PBMCs) (Discovery Life Sciences) from two individual healthy donors (Donor 1, Donor 2) using EasySep Human T cell Isolation Kit (StemCell Technologies #17951) and subsequently activated at a concentration of 0.5×10^6 cells/mL with Human T Expander Dynabeads (Gibco) (Thermo Fisher Scientific #11141D) at a ratio of 1 bead per cell in CTS Optimizer T cell expansion serum free medium (SFM) (Thermo Fisher Scientific #A1048501) supplemented with recombinant human IL-7 (10 ng/mL) and recombinant human IL-15 (5 ng/mL) (Peprotech #200-02). […]
For the killing assay, HER2-positive OVCAR-3 (ATCC #HTB-161) ovarian cancer cells stably transduced with IncuCyte Nuclight Red Lentivirus (Essen Biosciences #4706) in OVCAR media (RPMI 1640+20% FBS, 1% Pen-Strep +0.01 mg/mL human insulin) were plated (1.5×10^4 cells/well) in 96-well flat-bottom plates and incubated at 37° C. to allow for overnight adherence to serve as target cells. […] Tumor cell death was quantified on a ZE5 flow cytometer (Bio-Rad).

[2] = system: HER-2 positive tumor line (OVCAR-3); test: CAR-T killing assay (Example 7); type: cell-based, human
From the text: HER-2 specific CAR-T cells (CAR-Ts) were generated by transducing primary human CD3+ T cells (Discovery Life Sciences) with a lentivirus expressing a chimeric antigen receptor specific to human HER2, as well as GFP (Creative Bio). Prior to transduction, T cells were stimulated overnight with anti-CD3 and anti-CD28 antibodies coated onto magnetic beads (Invitrogen) at a 1:1 bead-to-cell ratio. Four days after transduction, the beads were removed and the following day CAR-Ts were sorted based on GFP expression and expanded in hIL7 ([…]) (Peprotech) and hIL15 (5 ng/mL) (Peprotech) for an additional 8 days. […]
CAR-Ts were pretreated with 0.1% DMSO (vehicle control) or a PTPN22 inhibitor (Compound A) for 1-2.5 hours prior to co-culture with cell lines at indicated concentrations. […] Tumor killing was assessed by comparing DMSO-treated CAR-Ts to PTPN22 inhibitor-treated CAR-Ts using either flow cytometry or Incucyte imaged-based assessment of tumor cell viability, at various effector:target ratios. Percent killing was assessed by calculating the amount of viable cells at a given time point as compared to untreated tumor cells (spontaneous release, marked “No CAR-T” in FIG. 2), tumor cells treated with PTPN22 inhibitor, and tumor cells cultured with DMSO treated CAR-T cells as a control.

## O=C(O)c1cc2c(C#Cc3cccc(C(F)(F)F)c3)c(-c3ccccc3)oc2cc1O [Compound A]
[1]
  tumor cell killing activity of CAR-T cells: higher tumor cell killing activity
[2]; HER-2 specific CAR-Ts pretreated 1-2.5 hours then washed, compared to control cells treated with DMSO, FIG. 2
  tumor cell killing activity of CAR-T cells: higher tumor cell killing activity
[2]; HER-2 specific CAR-Ts transiently pretreated 1-2.5 hours then washed, compared to DMSO control, FIG. 3
  increase in cell killing: ≥ 1.5 fold
